{"source": "paper PMC9006931", "about": "“Altered Response Pattern following AZD5582 Treatment of SIV-Infected, ART-Suppressed Rhesus Macaque Infants” (Journal of Virology, 2022)", "key": {"[1]": {"tested_on": "CD4+ T cells from SIV-infected, ART-suppressed adult RMs", "experiment": "Ex vivo viral RNA induction assay, adult CD4+ T cells", "assay_type": "cell-based, rhesus macaque", "conditions": "100 nM, 9 days, in presence of DTG+FTC", "description": "Following confirmation of ncNF-κB pathway activation in infant naive and memory CD4^+ T cells ex vivo, we next sought to evaluate SIV reactivation following ex vivo AZD5582 stimulation in CD4^+ T cells isolated from SIV-infected, ART-suppressed infant RMs compared to CD4^+ T cells from SIV-infected, ART-suppressed adult RMs. To do so, we isolated CD4^+ T cells through negative selection from the peripheral blood of five SIV-infected, ART-suppressed adult RMs and five SIV-infected, ART-suppressed infant RMs. Cells were stimulated with either 100 nM AZD5582 or rhesus specific anti-CD2/CD3/CD28 beads (as a positive control) in the presence of ART (DTG+FTC) for 9 days. The supernatant was collected to quantify SIVgag RNA through qPCR as a measure of viral reactivation.\nViable cryopreserved PBMCs from SIV-infected, ART-suppressed infant and adult RMs collected 34 to 97 weeks post ART initiation were thawed, and CD4^+ T cells were enriched by negative selection using the NHP CD4^+ T cell isolation kit (Miltenyi Biotec). […] The viral RNA content of frozen cell-free culture supernatants collected on day 9 was determined using the SIVgag qPCR described above."}, "[2]": {"tested_on": "SIVmac239", "set-up": "method as in PMID 31969707", "conditions": "adult RMs; cited from earlier work"}, "[3]": {"tested_on": "memory CD4+ T cells", "experiment": "Ki67 expression by whole blood flow cytometry, memory CD4+ T cells", "assay_type": "in vivo, rhesus macaque", "conditions": "for Ki67 expression in memory CD4+ T cells: AZD5582 treated infant RMs", "method": "The ncNF-κB pathway plays an important role in regulating T cell differentiation without causing broad systemic inflammation ([22]). We have previously observed a stimulatory effect on peripheral T cells following AZD5582 treatment specifically measurable through increased intracellular Ki67 expression ([17]). To further assess the effect of AZD5582 on infant RMs, flow cytometry was performed longitudinally on whole blood on the day of doses 1, 3, 6, and 9 and both 48 to 72h and 7 days after each of these doses. These time points were selected to allow longitudinal evaluation while remaining within blood volume constraints.\nMulticolor flow cytometric analysis was performed on whole blood (WB) or cell suspensions using predetermined optimal concentrations of the following fluorescently conjugated monoclonal antibodies (MAbs). For WB T cell analysis the following MAbs were used: CD3-allophycocyanin (APC)-Cy7 (clone SP34-2), CD95-phycoerythrin (PE)-Cy5 (clone DX2), Ki67-AF700 (clone B56), HLA-DR-peridinin chlorophyll protein (PerCP)-Cy5.5 (clone G46-6), CCR7-fluorescein isothiocyanate (FITC) (clone 150503), CCR5-APC (clone 3A9), CD62L (clone SK11), and CD45-RA-PE-Cy7 (clone L45) from BD Biosciences; CD8-BV711 (clone RPA-T8), CD4-BV650 (clone OKT4), and PD-1-BV421 (clone EH12.2H7) from BioLegend; and CD28-ECD (clone CD28-2) from Beckman-Coulter. Flow cytometric acquisition and analysis of samples were performed on at least 100,000 events on an AURORA flow cytometer driven by the SpectroFlo software package (Cytek). Analyses of the acquired data were performed using FlowJo version 10.0.4 software (TreeStar)."}, "[4]": {"experiment": "Tolerability of repeated AZD5582 infusions in infant RMs", "assay_type": "in vivo", "conditions": "0.1 mg/kg i.v., 10 infusions", "method": "The IAPi AZD5582 was reconstituted to 0.4 mg/mL in 10% Captisol within 1 week of administration as previously described ([17]). Monkeys assigned to the experimental intervention group received 10 administrations of 0.1 mg/kg AZD5582 by intravenous (i.v.) infusion with an inline filter for 30 minutes every week for 10 weeks.\nEDTA-anticoagulated blood samples were collected regularly and used for a complete blood count, routine chemical analysis, and immunostaining, with plasma separated by centrifugation within 1 h of phlebotomy. PBMCs were prepared by density gradient centrifugation. Lymph node biopsy specimens were collected at indicated time points (Fig. 2A). Lymph nodes were ground using a 70-μm cell strainer. Cell suspensions were washed and immediately used for immunostaining or cryopreserved at −80°C until use."}}}
{"compound": "CN[C@@H](C)C(=O)N[C@H](C(=O)N1CCC[C@H]1C(=O)N[C@H]1c2ccccc2C[C@H]1OCC#CC#CCO[C@@H]1Cc2ccccc2[C@@H]1NC(=O)[C@@H]1CCCN1C(=O)[C@@H](NC(=O)[C@H](C)NC)C1CCCCC1)C1CCCCC1", "note": "[AZD5582]", "values": [{"measurement": "Animals whose CD4+ T cell cultures showed increased SIV RNA expression in supernatant", "setting": "[1]", "value": "3/5"}, {"measurement": "SIV reactivation, events >60 copies/ml", "setting": "[2]", "value": "64/140"}, {"measurement": "SIV reactivation, events >60 copies/ml (percent)", "setting": "[2]", "value": 46, "unit": "%"}, {"measurement": "SIV reactivation, per animal (RMs with on-ART viremia)", "setting": "[2]", "value": "5/9"}, {"measurement": "SIV reactivation, per animal (percent)", "setting": "[2]", "value": 56, "unit": "%"}, {"measurement": "Mean Ki67 expression in peripheral memory CD4+ T cells", "setting": "[3]; 3-days post-AZD5582 (doses 1, 3, 6, 9), P = 0.02", "value": 28.4, "unit": "%"}, {"measurement": "Ki67 expression in memory CD4+ T cells", "setting": "[3]; 7 days following dose 1", "value": 46.9, "unit": "%"}, {"measurement": "Ki67 expression in memory CD4+ T cells", "setting": "[3]; before the increase seen after dose 1", "value": 8.7, "unit": "%"}, {"measurement": "Other markers of activation, including HLA-DR and PD-1", "setting": "[3]; T cells following AZD5582 treatment, infant RMs", "value": "did not observe increases"}, {"measurement": "Mean Ki67 expression in peripheral memory CD4+ T cells", "setting": "[3]; baseline (immediately before doses 1, 3, 6, 9)", "value": 21.0, "unit": "%"}, {"measurement": "Average increase of Ki67 expression in memory CD4+ T cells after dose 1", "setting": "[3]; relative to three baseline measurements, treated infant RMs", "value": 24.3, "unit": "%"}, {"measurement": "Tolerability / clinical adverse events", "setting": "[4]", "value": "well-tolerated and safe"}]}
